Data taken from patent US10604473B2, “Lipids that increase insulin sensitivity and methods of using the same” (Beth Israel Deaconess Medical Center, Inc., priority 2013, dated 2020).
“Also recorded” adds a separate entry of the source.

Tests used:
Type in all cases: cell-based
STC-1 cells [1] = assay: GLP-1 secretion from STC-1 enteroendocrine cells (ELISA)
Experimental: For the experiments summarized in FIG. 41 STC-1 cells were incubated with vehicle (DMSO), 9-PAHSA, 5-PAHSA or 9-OAHSA at the indicated concentrations or lineolic acid (100 uM) as a positive control. Media was harvested and GLP-1 was measured by ELISA.
For the experiments summarized in FIG. 42, the same protocol as described for FIG. 41 was used, except in this experiment a time course was performed. For both FIG. 41 and FIG. 42, for GLP-1 secretion STC1 cells were washed 3× with serum free culture media followed by stimulation with FAHFAs or vehicle at the indicated concentrations and timepoints. Levels of active GLP-1 were measured by ELISA.

STC-1 cells [2] = assay: ERK phosphorylation in STC-1 cells (immunoblot); settings: 15 minutes stimulation
Experimental: For the experiments summarized in FIG. 40, STC-1 cells were incubated with 9-PAHSA, 5-PAHSA or 9-OAHSA at the indicated concentrations. Cells were harvested and lysed and proteins were separated by SDS PAGE and transferred onto nitrocellulose filters. The phosphorylation of ERK and the amount of total ERK was determined by immunoblotting with antibodies specific for total or phosphor-ERK. DMSO was the control. For ERK phosphorylation, cells were serum deprived overnight and stimulated with FAHFAs or vehicle as indicated for 15 minutes followed by lysis in RIPA buffer and analysis by SDS-PAGE

3T3-L1 adipocytes = assay: Glucose transport in 3T3-L1 adipocytes
Experimental: FIGS. 54A-D show glucose uptake regulation by PAHSAs and Glut4 translocation via GPR120. FIG. 54A is a bar graph showing insulin-stimulated glucose transport in 3T3-L1 adipocytes treated 9-PAHSA (20 μM) or vehicle (DMSO) control for 6 days. n=6 per group, *p<0.05 compared to vehicle by t-test. FIG. 54B is a bar graph showing insulin (10 nM)-stimulated glucose transport in 3T3-L1 adipocytes transfected with control siRNA or GPR120 siRNA and treated 5-PAHSA (10 μM), 9-PAHSA (10 μM) or vehicle (DMSO) control for 2 days. n=3 per group, *p<0.05 compared to DMSO+control siRNA or GPR120 siRNA alone, $p<0.05 compared to control siRNA or GPR120 siRNA+insulin and GPR120 siRNA+insulin+PAHSA by t-test. FIG. 54C is a panel showing Glut4 plasma membrane translocation in 3T3-L1 adipocytes transfected with control siRNA or GPR120 siRNA and treated with 9-PAHSA in the presence or absence of insulin. 6 separate experiments were carried out without RNAi and 3 experiments with RNAi; each experiment had greater than 50 cells per experimental condition. FIG. 54D is a bar graph showing quantification of Glut4 translocation in panel C. *p<0.05 compared to control siRNA+insulin and GPR120 siRNA+insulin+9-PAHSA by t-test. All data are presented as mean±s.e.m. See also FIG. 57.
For all cell culture experiments, FAHFAs were solubilized in DMSO at a concentration of 20 mM and further diluted in assay buffer or cell culture media to the working concentrations indicated for each assay. In all instances an equivalent volume of vehicle (DMSO) was added to control treatment groups.

Ins1 cells = assay: Insulin release in INS1 cells; settings: 25 mM glucose in the media
Experimental: Ins1 cells (FIG. 21) or primary rat islet cells (FIG. 22) were seeded in 24 well-plates [˜10^6 cells/well]. At confluence, cells were incubated with Low Serum [2.5%] and Low Glucose [2.5 mM] media for 12 hours. Next, cells were incubated with KRB buffer for 1 h and stimulated with glucose in the presence of 5-PAHSA (FIG. 21) or 9-PAHSA (FIG. 21) for 45 min in KRB. At the end of the stimulation, 100 μL of media was collected and 10 μL was used to quantitate the amount of insulin released by ELISA. Treatment Conditions for FIGS. 21 and 22 were: • 5-PAHSA or 9-PAHSA [Stock]=20.0 mM [10.76 mg/mL Methanol] • A] 1 uM=0.3 uL/6 mL [Amount of methanol/mL=0.05 uL] • B] 5 uM=1.5 uL/6 mL [Amount of methanol/mL=0.25 uL] • C] 10 uM=3.0 uL/6 mL [Amount of methanol/mL=0.50 uL] • D] 20 uM=6.0 uL/6 mL [Amount of methanol/mL=1.00 uL]
INS-1 cells were seeded in 24 well-plates [˜10^6 cells/well] and at 80% confluence, were cultured overnight in RPMI 1640 medium containing 2.5 mM glucose and 2.5% fetal bovine serum supplemented with 100 IU/ml penicillin and […], 1 mM sodium pyruvate, 2-mercaptoethanol (50 μM) and 10 mM HEPES (pH 7.4). […] At the end of the stimulation supernatant was collected and insulin released into the medium was quantified by ELISA as per manufacturer's protocol. […]

Row | SMILES | GLP-1 secretion (STC-1 cells [1]) | ERK phosphorylation (STC-1 cells [2]) | insulin-stimulated glucose transport (3T3-L1 adipocytes) | insulin secretion (Ins1 cells) | time course for GLP-1 secretion (STC-1 cells [1]) | glucose transport (3T3-L1 adipocytes; basal state)
1 | CCCCCCCCCCCCCCCC(=O)OC(CCCCCCCCCCCCC)CCCC(=O)O (stereo not drawn) [5-PAHSA] | rapidly stimulated GLP-1 secretion; also recorded: induce GLP-1 secretion | induce ERK phosphorylation | enhanced insulin-induced glucose transport | potentiate insulin secretion |  | 
2 | CCCCCCCCCCCCCCCC(=O)OC(CCCCCCCCC)CCCCCCCC(=O)O (stereo not drawn) [9-PAHSA, palmitoyl-9-hydroxystearic acid] | rapidly stimulated GLP-1 secretion; also recorded: induce GLP-1 secretion | induce ERK phosphorylation |  | potentiate insulin secretion | very rapid and sustained | modestly increased glucose transport
